The source of these data is PMC7737769, “Pharmacological inhibition of syntenin PDZ2 domain impairs breast cancer cell activities and exosome loading with syndecan and EpCAM cargo” (Journal of Extracellular Vesicles, 2020).

Like-named read-outs stand apart in the source and are kept apart here.

The subject of one assay is T1, Erbin‐P0071 complex.
T1 construct: human Erbin PDZ domain; made in house; host or cells: E. coli BL21 (DE3)
Put plainly: HTRF assay, Erbin-P0071 interaction. It counts as biochemical, human. The protocol:
(§1) HTRF assays were performed in white 96Well Small VolumeHiBase Polystyrene Microplates (Greiner) with a total working volume of […], as described previously (Milhas et al., 2016). Briefly, compounds were firstly dispensed into the wells at 400 µM for the primary screen or with serial DMSO dilutions for IC50 measurement assays. Primary screening assays have been performed in monoplicate while IC50 measurements were performed in triplicates. All HTRF reagents were purchased from CisBio Bioassays and reconstituted according to the supplier protocols. The plates were spun for 3 min at 500 × g and then incubated at 4°C for 16 h. The HTRF signals were recorded on a POLAR star Omega plate reader (BMG Labtech) with an excitation filter at 337 nm and fluorescence wavelength measurement at 620 and 665 nm, an integration delay of 60 µs and an integration time of 400 µs. Results were analysed with a two‐wavelength signal ratio: [intensity (665 nm)/intensity (620 nm)] × 10^4. Percentage of inhibition was calculated using the following equation: % inhibition = [(compound signal)–(min signal)]/[(max signal)–(min signal)] × 100, where ‘max signal’ is the signal ratio with the compound vehicle alone (DMSO) and ‘min signal’ the signal ratio without protein B. For IC50 measurements, values were normalized and fitted with Prism (GraphPad software) using the following equation: Y = 100/(1+((X/ IC50)ˆHill slope)).
(§2) The search strategy for PDZ2 syntenin inhibitors was based on the PDZ targeted library developed from Enamine compound collection. The PDZ targeted library was developed to cover virtually all PDZ domains. Consequently, to create the syntenin PDZ2 focused library we used two independent paths: docking of the PDZ targeted library against structures of syntenin PDZ2 available in Protein Data Bank and a random selection from the PDZ targeted library. The docking has produced 21 virtual hits, which were added to 118 randomly selected compounds (10% of the pan PDZ library). The resultant set of 139 compounds, syntenin PDZ library was subjected to experimental validation. The primary screen was performed at 400µM using a previously validated Homogeneous Time Resolved Fluorescence (HTRF) assay (Milhas et al., 2016). HTRF is based on Fluorescence Resonance Energy Transfer (FRET) between two fluorescent reagents. In the present case, Anti‐GST‐Terbium antibody and streptavidin‐bound Dynamic2 were used as donor and acceptor respectively. Interactions between GST PDZ‐fusion proteins and biotinylated peptides containing PDZ binding motifs were challenged with the potential inhibitors. In parallel, control experiments were performed with a biotinylated‐GST to verify that compounds were not interfering with the FRET signal in a non‐specific manner. To identify inhibitors of syntenin PDZ interactions, we tested for the effect of the 139 compounds on syntenin‐SDC2 and syntenin‐Frizzled7 complexes (Figure 1a; Table S1). When the HTRF signal dropped below 0.9, inhibition was considered as effective. […] Noteworthy, these compounds had no effect on other PDZ complexes like GRASP55‐JAM‐B or GRASP55‐JAM‐C and Erbin‐Erbb2 or Erbin‐P0071 (Figure 1c).
(In general: TR-FRET usually uses a lanthanide donor and a delayed reading to cut background.)

The next assay deals with T2, GRASP55‐JAM‐B complex.
T2 construct: Human GRASP55 tandem PDZ; made in house; host or cells: E. coli BL21 (DE3)
Kind of assay: HTRF assay, GRASP55-JAM-B interaction. It counts as biochemical, human. As for the experimental part: as §1, §2

The next assay has as its system MCF‐7 cells. Kind of assay: Mammosphere formation assay, MCF-7. It counts as cell-based. Particulars: wild-type MCF-7, 50 & 100 µM. As for the experimental part: MCF‐7 and MCF‐7 SyntKO cells were treated with increasing concentrations of compounds C58, SyntOFF (50‐100µM) or DMSO 0.2% as control. After 24 h, cells were trypsinized, re‐suspended in normal growth media and washed three times in PBS to remove serum. Cell concentration was determined using the LUNA-FL Automated Fluorescence Cell Counter (Logos Biosystem) and cells were then seeded at 1000 cells/ml in 6‐well Ultra low Adherence plates (Corning Inc., Corning, NY) in MEBM medium (Lonza) supplemented with 5 µg/ml insulin (Sigma‐Aldrich), 20 ng/ml recombinant epidermal growth factor (Sigma‐Aldrich), 1X of B27 supplement (Invitrogen, Carlsbad, CA, USA), 0.5 µg/ml hydrocortisone (Sigma‐Aldrich), 1X of β‐mercaptoethanol and 1% penicillin/streptomycin (Gibco). Fresh medium was added into the plates every 3–4 days. The number of spheres (diameter > 50 µm) was evaluated under microscope on days 7–10. Sphere formation was calculated as the number of spheres divided by the original number of cells seeded and normalized to control.

Assay [1] has as its target T3, syntenin‐PDZ tandem plus C‐terminal domain (Homo sapiens, UniProt O00560).
T3 construct: made in house; host or cells: Biotin XCell F' E. coli cells
T3 sequence (O00560 107-298): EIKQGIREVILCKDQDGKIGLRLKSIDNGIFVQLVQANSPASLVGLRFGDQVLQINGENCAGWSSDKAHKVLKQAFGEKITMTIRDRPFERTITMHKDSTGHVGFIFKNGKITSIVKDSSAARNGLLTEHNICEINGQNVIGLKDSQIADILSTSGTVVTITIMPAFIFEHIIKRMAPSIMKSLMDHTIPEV
Put plainly: Surface plasmon resonance (BIAcore), syntenin PDZ tandem plus C-terminal domain. In kind it is binding. As for the experimental part: All SPR experiments were conducted with a BIAcore T200 instrument (GE Healthcare), at 25°C. A total of 8000 resonance units (RU) of biotinylated ligands (N‐terminal 6xHis tagged biotinylated syntenin tandem, syntenin tandem with C terminus, GRASP55 tandem or GST as control) were immobilized on a streptavidin‐sensor chip (GE Healthcare). Analytes (C58 and SyntOFF compounds) were perfused at 30 µl per min in running buffer (10 mM HEPES pH 7.4, 150 mM NaCl, 0.005% Tween20) at different concentrations. The reference channel was N‐terminal 6xHis tagged biotinylated GST protein. The injection time was 240 s, long enough for the sensorgrams to reach equilibrium, and the dissociation time was 240 s. To carry out these SPR experiments, we employed the method known as ‘single‐cycle kinetics’ described in 2006 by Karlsson and co‐workers (Karlsson, Katsamba, Nordin, Pol, & Myszka, 2006). It consists in injecting the analyte at increasing concentrations, without regeneration steps between each sample injection to avoid that folded‐proteins can be damaged after regeneration steps. Equilibrium dissociation constants (KD) were calculated by fitting the data to a simple Langmuir binding isotherm using GraphPad Prism. For determination of the apparent KD, signals obtained at equilibrium were plotted as a function of compound concentration. […]

As to `CC(C)[C@H](NC(=O)CSc1ccc(Cl)cc1)C(=O)O` [Compound C58], in the assay on Erbin‐P0071 complex (400µM compound, Figure 1c), the “GST-Erbin P0071 (signal ratio)” value was 1. Further, the “GST-GRASP JAM-B (signal ratio)” value in the assay on GRASP55‐JAM‐B complex (400µM compound, Figure 1c) is 1.1. The mammosphere formation result in the assay with MCF‐7 cells is recorded as “decreases”. Also, the Kd in assay [1] (compound in PBS, read-out: apparent KD, syntenin‐PDZ tandem plus C‐terminal domain) worked out at 886 µM.
Consider `CC(C)[C@H](NC(=O)CCSc1ccc(Cl)cc1)C(=O)O` [SyntOFF, (S)‐2‐(3‐(4‐chlorophenylthio)propanamido)‐3‐methylbutanoic acid], for which the “effect on Erbin‐P0071 complex” value with Erbin‐P0071 complex (HTRF dose-response, Figure S2a) is given as “not affecting”. In addition, the “effect on GRASP55‐JAM‐B complex” value in the assay with GRASP55‐JAM‐B complex (HTRF dose-response, Figure S2b) is on record as “not affecting”. Moreover, in the assay with MCF‐7 cells, the mammosphere formation result was “decreases”. For the same compound, the Kd in assay [1] (DMSO as vehicle, read-out: KD, syntenin‐PDZ tandem plus C‐terminal domain) turned out to be 130 µM.
